Laboratory results reported in article PMC9505254 (Pathogens, 2022).
Entries after “also recorded” stand apart in the source; their conditions may differ.

Columns and labels:
[1] = tested on: S. aureus (ATCC 25923) biofilm; experiment: Inhibition of biofilm formation (crystal violet); type: cell-based; settings: Staphylococcus aureus, ATCC25923, alone at 0.2 µg mL−1, 48 h, 37 °C, A600, triplicate
Method: The assay was made in flat-bottom 96-well polystyrene microplates as described by Bezerra et al.. The cell suspension was prepared using a single colony of S. aureus from a Petri dish with Mueller–Hinton broth (stock bacteria). The colony was transferred to Mueller–Hinton broth and incubated at 37 ℃ for 24 h. After, the cell suspension was standardized to a concentration of 10^6 cells mL^−1. […] The combination of peptide and antibiotic was made from the highest concentration of the peptide combined with the lowest antibiotic concentration and vice versa. After the incubation period, the supernatant was removed carefully from each well and washed one time with sterile NaCl 0.15 M solution. […] The absorbances were obtained via a microplate reader (BioTek^TM Epoch, BioTek Instruments, Inc., Winooski, VT, USA) at 600 nm. The experiment was repeated three times.

S. aureus biofilm cells = experiment: ROS overproduction (DCFH-DA, fluorescence microscopy); settings: ciprofloxacin alone at 6.2, 0.2, 25 or 0.02 µg mL−1 (Figures 4 and 5)
[2] = tested on: S. aureus (ATCC 25923) preformed biofilm; experiment: Reduction of preformed biofilm mass (crystal violet); type: cell-based, Staphylococcus aureus
Method: After the incubation period, the supernatant was removed carefully from each well and washed one time with sterile NaCl 0.15 M solution. […] The absorbances were obtained via a microplate reader (BioTek^TM Epoch, BioTek Instruments, Inc., Winooski, VT, USA) at 600 nm. The experiment was repeated three times. The assay to observe the preformed biofilm reduction was conducted the same as described above but with some adjustments. […] The microplates were incubated in the dark, at 37 ℃, for 24 h. After incubation, the biofilm was washed, dried, and stained, and absorbance was taken as above.

[3] = tested on: type-B human erythrocytes
[4] = tested on: type-O human erythrocytes
[5] = tested on: type-A human erythrocytes

Row | Compound | inhibition at 0.2 µg/mL [1] [%] | ROS overproduction (S. aureus biofilm cells) | reduction of preformed biofilm ([2]; alone at 6.2 µg mL−1, 24 h biofilm, 24 h treatment, 37 °C, crystal violet, A600) [%] | reduction of preformed biofilm ([2]; alone at 25 µg mL−1) [%] | reduction of the biomass of preformed biofilm ([2]; ciprofloxacin alone at the Figure 1D concentrations (0.02, 0.39, 0.78, 6.2 µg mL−1)) | reduction of the biomass of preformed biofilm ([2]; each alone at the concentrations of the two Figure 1C combinations (RcAlb-PepI 0.04 and 0.2; ciprofloxacin 25 and 6.2 µg mL−1)) | % Hemolysis Type-B Blood [3] [%] | % Hemolysis Type-O Blood [4] [%] | % Hemolysis Type-A Blood [5] [%]
1 | O=C(O)c1cn(C2CC2)c2cc(N3CCNCC3)c(F)cc2c1=O [Ciprofloxacin] | 10 | did not induce ROS; also recorded: not able to induce ROS accumulation | 0 | 8 | not effective | not effective |  |  | 
2 | Triton X-100 |  |  |  |  |  |  | 100 ± 0.001 | 100 ± 0.005 | 100 ± 0.001
